# Laboratory results published in ChEMBL document CHEMBL5046315, “CRCM5484: A BET-BDII Selective Compound with Differential Anti-leukemic Drug Modulation” (J Med Chem, 2022).
# The source made the active and inactive calls. The rule behind the calls is not given here.
# Experiments:
# CCRF-CEM [1] = assay: Potentiation of temsirolimus-induced antileukemic activity against human CCRF-CEM cells at 4.3 uM in presence of bone-marrow derived stromal cell-conditioned medium; format: functional, cell-based
# MOLM-14 [2] = assay: Potentiation of daunorubicine-induced antileukemic activity against human MOLM-14 cells at 4.3 uM in presence of bone-marrow derived stromal cell-conditioned medium; format: functional, cell-based
# U-937 [3] = assay: Potentiation of dasatinib-induced antileukemic activity against human U-937 cells at 4.3 uM in presence of bone-marrow derived stromal cell-conditioned medium; format: functional, cell-based
# MOLM-14 [4] = assay: Potentiation of MK2206-induced antileukemic activity against human MOLM-14 cells at 4.3 uM in presence of bone-marrow derived stromal cell-conditioned medium; format: functional, cell-based
# CCRF-CEM [5] = assay: Potentiation of luminespid-induced antileukemic activity against human CCRF-CEM cells at 4.3 uM in presence of bone-marrow derived stromal cell-conditioned medium; format: functional, cell-based
# [6] = biological target: Bromodomain-containing protein 4 (Homo sapiens, UniProt O60885); assay: Inhibition of human partial length BRD4-BD2 (K333 to E460 residues) expressed in bacterial system at 1 uM by BROMOscan method relative to control
# MOLM-14 [7] = assay: Potentiation of sunitinib-induced antileukemic activity against human MOLM-14 cells at 4.3 uM in presence of bone-marrow derived stromal cell-conditioned medium; format: functional, cell-based
# U-937 [8] = assay: Potentiation of selinexor-induced antileukemic activity against human U-937 cells at 4.3 uM in presence of bone-marrow derived stromal cell-conditioned medium; format: functional, cell-based
# U-937 [9] = assay: Potentiation of AGI-5198-induced antileukemic activity against human U-937 cells at 4.3 uM in presence of bone-marrow derived stromal cell-conditioned medium; format: functional, cell-based
# MOLM-14 [10] = assay: cells; conditions: Homo sapiens, MOLM-14, 72 h
# Description: Cytotoxicity against human MOLM-14 cells assessed as reduction in cell viability incubated for 72 hrs
# CCRF-CEM [11] = assay: Potentiation of metformin -induced antileukemic activity against human CCRF-CEM cells at 4.3 uM in presence of bone-marrow derived stromal cell-conditioned medium; format: functional, cell-based
# MOLM-14 [12] = assay: Potentiation of luminespid-induced antileukemic activity against human MOLM-14 cells at 4.3 uM in presence of bone-marrow derived stromal cell-conditioned medium; format: functional, cell-based
# [13] = biological target: Bromodomain-containing protein 2 (Homo sapiens, UniProt P25440); assay: Inhibition of human partial length BRD2-BD2 (E348 to D455 residues) expressed in bacterial system at 1 uM by BROMOscan method relative to control
# Sequence of Bromodomain-containing protein 2 (P25440 whole entry, looked up, the tested form may be a part): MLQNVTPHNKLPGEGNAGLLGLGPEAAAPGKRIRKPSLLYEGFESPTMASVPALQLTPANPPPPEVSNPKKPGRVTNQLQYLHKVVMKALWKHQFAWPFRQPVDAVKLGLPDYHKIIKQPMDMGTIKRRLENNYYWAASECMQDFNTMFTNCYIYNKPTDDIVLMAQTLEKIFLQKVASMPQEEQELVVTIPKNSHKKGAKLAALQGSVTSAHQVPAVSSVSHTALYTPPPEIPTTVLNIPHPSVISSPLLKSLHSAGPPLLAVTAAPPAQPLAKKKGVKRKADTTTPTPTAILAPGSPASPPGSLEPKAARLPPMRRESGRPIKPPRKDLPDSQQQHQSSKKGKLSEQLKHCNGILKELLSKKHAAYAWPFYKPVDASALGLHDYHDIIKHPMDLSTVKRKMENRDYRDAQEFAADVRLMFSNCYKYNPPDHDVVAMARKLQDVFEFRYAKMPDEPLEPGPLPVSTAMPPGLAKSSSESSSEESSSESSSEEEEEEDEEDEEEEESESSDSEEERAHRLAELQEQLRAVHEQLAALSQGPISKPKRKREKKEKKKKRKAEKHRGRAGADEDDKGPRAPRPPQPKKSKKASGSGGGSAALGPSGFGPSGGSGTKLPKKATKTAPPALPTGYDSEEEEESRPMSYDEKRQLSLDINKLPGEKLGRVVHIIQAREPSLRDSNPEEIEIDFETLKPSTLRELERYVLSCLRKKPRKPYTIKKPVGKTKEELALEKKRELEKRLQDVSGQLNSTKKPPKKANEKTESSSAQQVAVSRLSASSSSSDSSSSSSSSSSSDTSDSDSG
# MOLM-14 [14] = assay: Potentiation of bortezomib-induced antileukemic activity against human MOLM-14 cells at 4.3 uM in presence of bone-marrow derived stromal cell-conditioned medium; format: functional, cell-based
# U-937 [15] = assay: Potentiation of lapatinib-induced antileukemic activity against human U-937 cells at 4.3 uM in presence of bone-marrow derived stromal cell-conditioned medium; format: functional, cell-based
# U-937 [16] = assay: Potentiation of rigosertib-induced antileukemic activity against human U-937 cells at 4.3 uM in presence of bone-marrow derived stromal cell-conditioned medium; format: functional, cell-based
# MOLM-14 [17] = assay: Potentiation of afatinib-induced antileukemic activity against human MOLM-14 cells at 4.3 uM in presence of bone-marrow derived stromal cell-conditioned medium; format: functional, cell-based
# U-937 [18] = assay: Potentiation of erlotinib-induced antileukemic activity against human U-937 cells at 4.3 uM in presence of bone-marrow derived stromal cell-conditioned medium; format: functional, cell-based
# U-937 [19] = assay: Potentiation of gefitinib-induced antileukemic activity against human U-937 cells at 4.3 uM in presence of bone-marrow derived stromal cell-conditioned medium; format: functional, cell-based
# MOLM-14 [20] = assay: Potentiation of cladribine-induced antileukemic activity against human MOLM-14 cells at 4.3 uM in presence of bone-marrow derived stromal cell-conditioned medium; format: functional, cell-based
# U-937 [21] = assay: Potentiation of idasanutlin-induced antileukemic activity against human U-937 cells at 4.3 uM in presence of bone-marrow derived stromal cell-conditioned medium; format: functional, cell-based
# U-937 [22] = assay: Potentiation of dexamethasone-induced antileukemic activity against human U-937 cells at 4.3 uM in presence of bone-marrow derived stromal cell-conditioned medium; format: functional, cell-based
# MOLM-14 [23] = assay: Potentiation of AG-221-induced antileukemic activity against human MOLM-14 cells at 4.3 uM in presence of bone-marrow derived stromal cell-conditioned medium; format: functional, cell-based
# [24] = biological target: Bromodomain-containing protein 3 (Homo sapiens, UniProt Q15059); assay: Inhibition of human partial length BRD3-BD2 (G306 to P416 residues) expressed in bacterial system at 1 uM by BROMOscan method relative to control
# Sequence of Bromodomain-containing protein 3 (Q15059 2-726 limits assumed): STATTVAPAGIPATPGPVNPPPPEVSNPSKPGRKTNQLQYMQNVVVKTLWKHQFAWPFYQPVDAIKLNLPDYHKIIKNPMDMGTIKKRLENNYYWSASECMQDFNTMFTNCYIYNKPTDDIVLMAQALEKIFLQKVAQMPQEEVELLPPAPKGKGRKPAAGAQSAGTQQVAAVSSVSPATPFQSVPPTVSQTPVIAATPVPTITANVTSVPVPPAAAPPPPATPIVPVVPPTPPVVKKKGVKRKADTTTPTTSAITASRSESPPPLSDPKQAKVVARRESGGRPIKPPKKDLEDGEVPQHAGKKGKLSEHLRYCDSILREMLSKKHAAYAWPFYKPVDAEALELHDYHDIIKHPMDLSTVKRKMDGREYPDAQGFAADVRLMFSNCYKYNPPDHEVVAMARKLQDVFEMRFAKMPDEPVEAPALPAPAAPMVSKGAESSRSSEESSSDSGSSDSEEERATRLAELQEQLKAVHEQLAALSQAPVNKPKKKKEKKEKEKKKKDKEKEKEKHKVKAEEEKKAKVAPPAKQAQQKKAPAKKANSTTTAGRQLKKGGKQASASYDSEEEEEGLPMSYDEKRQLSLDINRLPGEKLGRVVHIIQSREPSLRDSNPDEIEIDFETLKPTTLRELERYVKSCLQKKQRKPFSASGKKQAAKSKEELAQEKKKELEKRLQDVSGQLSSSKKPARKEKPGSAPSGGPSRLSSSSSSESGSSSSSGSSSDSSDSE
# MOLM-14 [25] = assay: Potentiation of GSK2879552-induced antileukemic activity against human MOLM-14 cells at 4.3 uM in presence of bone-marrow derived stromal cell-conditioned medium; format: functional, cell-based
# U-937 [26] = assay: Potentiation of docetaxel-induced antileukemic activity against human U-937 cells at 4.3 uM in presence of bone-marrow derived stromal cell-conditioned medium; format: functional, cell-based
# CCRF-CEM [27] = assay: Potentiation of MK2206-induced antileukemic activity against human CCRF-CEM cells at 4.3 uM in presence of bone-marrow derived stromal cell-conditioned medium; format: functional, cell-based
# U-937 [28] = assay: Potentiation of AG-221-induced antileukemic activity against human U-937 cells at 4.3 uM in presence of bone-marrow derived stromal cell-conditioned medium; format: functional, cell-based
# U-937 [29] = assay: Potentiation of imatinib-induced antileukemic activity against human U-937 cells at 4.3 uM in presence of bone-marrow derived stromal cell-conditioned medium; format: functional, cell-based
# MOLM-14 [30] = assay: Potentiation of crenolatinib-induced antileukemic activity against human MOLM-14 cells at 4.3 uM in presence of bone-marrow derived stromal cell-conditioned medium; format: functional, cell-based
# U-937 [31] = assay: Potentiation of -nutlin 3-induced antileukemic activity against human U-937 cells at 4.3 uM in presence of bone-marrow derived stromal cell-conditioned medium; format: functional, cell-based
# CCRF-CEM [32] = assay: Potentiation of ponatinib-induced antileukemic activity against human CCRF-CEM cells at 4.3 uM in presence of bone-marrow derived stromal cell-conditioned medium; format: functional, cell-based
# MOLM-14 [33] = assay: Potentiation of erlotinib-induced antileukemic activity against human MOLM-14 cells at 4.3 uM in presence of bone-marrow derived stromal cell-conditioned medium; format: functional, cell-based
# CCRF-CEM [34] = assay: Potentiation of panobinostat-induced antileukemic activity against human CCRF-CEM cells at 4.3 uM in presence of bone-marrow derived stromal cell-conditioned medium; format: functional, cell-based
# CCRF-CEM [35] = assay: Potentiation of AC-4-130-induced antileukemic activity against human CCRF-CEM cells at 4.3 uM in presence of bone-marrow derived stromal cell-conditioned medium; format: functional, cell-based
# [36] = tested on: Acute myeloid leukemic cell; assay: Potentiation of birinapant-induced antileukemic activity against patient derived mouse xenografted acute myeloid leukemic cells assessed as cell viability at 2 uM measured after 72 to 144 hrs by Cell-titre glo luminescent assay; format: functional, cell-based; conditions: Homo sapiens, time lower […], time upper 144.0 hrs
# MOLM-14 [37] = assay: Potentiation of olaparid-induced antileukemic activity against human MOLM-14 cells at 4.3 uM in presence of bone-marrow derived stromal cell-conditioned medium; format: functional, cell-based
# MOLM-14 [38] = assay: Potentiation of nelarabine-induced antileukemic activity against human MOLM-14 cells at 4.3 uM in presence of bone-marrow derived stromal cell-conditioned medium; format: functional, cell-based
# U-937 [39] = assay: Potentiation of topotecan-induced antileukemic activity against human U-937 cells at 4.3 uM in presence of bone-marrow derived stromal cell-conditioned medium; format: functional, cell-based
# MOLM-14 [40] = assay: Potentiation of decitabine-induced antileukemic activity against human MOLM-14 cells at 4.3 uM in presence of bone-marrow derived stromal cell-conditioned medium; format: functional, cell-based
compound,measurement,setting,value
CC(=O)N1CCc2c(sc3nc(SCC(=O)Nc4cccnc4C)n(Cc4ccco4)c(=O)c23)C1,Activity,CCRF-CEM [1],inactive
same,Activity,MOLM-14 [2],inactive
same,Activity,U-937 [3],inactive
same,Activity,MOLM-14 [4],inactive
same,Activity,CCRF-CEM [5],inactive
same,inhibition,[6],41%
same,Activity,MOLM-14 [7],inactive
same,Activity,U-937 [8],inactive
same,Activity,U-937 [9],inactive
same,EC50,MOLM-14 [10],8.5 µM
same,Activity,CCRF-CEM [11],inactive
same,Activity,MOLM-14 [12],inactive
same,inhibition,[13],37%
same,Activity,MOLM-14 [14],inactive
same,Activity,U-937 [15],inactive
same,Activity,U-937 [16],inactive
same,Activity,MOLM-14 [17],inactive
same,Activity,U-937 [18],inactive
same,Activity,U-937 [19],inactive
same,Activity,MOLM-14 [20],inactive
same,Activity,U-937 [21],inactive
same,Activity,U-937 [22],inactive
same,Activity,MOLM-14 [23],inactive
same,inhibition,[24],36%
same,Activity,MOLM-14 [25],inactive
same,Activity,U-937 [26],inactive
same,Activity,CCRF-CEM [27],inactive
same,Activity,U-937 [28],inactive
same,Activity,U-937 [29],inactive
same,Activity,MOLM-14 [30],inactive
same,Activity,U-937 [31],inactive
same,Activity,CCRF-CEM [32],inactive
same,Activity,MOLM-14 [33],inactive
same,Activity,CCRF-CEM [34],inactive
same,Activity,CCRF-CEM [35],inactive
same,Activity,[36],Active
same,Activity,MOLM-14 [37],inactive
same,Activity,MOLM-14 [38],inactive
same,Activity,U-937 [39],inactive
same,Activity,MOLM-14 [40],inactive
